Assay results published in patent publication US10858339B2, “Aryl cyclopropyl-amino-isoquinolinyl amide compounds” (priority 2017, dated 2020).

Columns and labels:
ROCK2 = ROCK2 (Homo sapiens, UniProt O75116); experiment: biochemical; conditions: ROCK2, Table 17
IKKb = biological target: T1, IKKb (Homo sapiens, UniProt O14920); experiment: IKKb kinase activity; type: biochemical; conditions: Table 17
T1 sequence (O14920 1-756): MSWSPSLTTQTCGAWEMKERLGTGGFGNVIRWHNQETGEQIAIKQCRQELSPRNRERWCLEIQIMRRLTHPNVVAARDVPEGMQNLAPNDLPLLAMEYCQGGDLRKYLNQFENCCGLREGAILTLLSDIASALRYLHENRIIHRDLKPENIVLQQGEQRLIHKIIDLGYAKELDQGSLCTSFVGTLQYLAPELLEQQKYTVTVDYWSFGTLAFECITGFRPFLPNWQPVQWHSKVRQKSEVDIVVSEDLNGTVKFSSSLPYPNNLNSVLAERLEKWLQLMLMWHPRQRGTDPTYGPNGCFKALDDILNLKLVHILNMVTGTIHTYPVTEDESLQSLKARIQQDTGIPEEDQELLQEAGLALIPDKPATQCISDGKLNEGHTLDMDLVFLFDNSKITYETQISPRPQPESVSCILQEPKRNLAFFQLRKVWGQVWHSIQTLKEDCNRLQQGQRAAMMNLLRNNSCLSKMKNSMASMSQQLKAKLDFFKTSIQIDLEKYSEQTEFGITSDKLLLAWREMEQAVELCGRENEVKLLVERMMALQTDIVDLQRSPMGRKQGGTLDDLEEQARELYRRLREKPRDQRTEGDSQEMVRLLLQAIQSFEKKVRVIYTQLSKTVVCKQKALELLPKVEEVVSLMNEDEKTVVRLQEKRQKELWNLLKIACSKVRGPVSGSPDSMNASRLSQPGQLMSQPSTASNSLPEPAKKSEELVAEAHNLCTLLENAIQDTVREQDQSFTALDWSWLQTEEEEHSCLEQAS

JAK3 = biological target: T2, JAK3 (Homo sapiens, UniProt P52333); experiment: JAK kinase assay, JAK3 enzyme; type: biochemical; conditions: Table 17; read-out: JAK3
T2 sequence (P52333 1-1124): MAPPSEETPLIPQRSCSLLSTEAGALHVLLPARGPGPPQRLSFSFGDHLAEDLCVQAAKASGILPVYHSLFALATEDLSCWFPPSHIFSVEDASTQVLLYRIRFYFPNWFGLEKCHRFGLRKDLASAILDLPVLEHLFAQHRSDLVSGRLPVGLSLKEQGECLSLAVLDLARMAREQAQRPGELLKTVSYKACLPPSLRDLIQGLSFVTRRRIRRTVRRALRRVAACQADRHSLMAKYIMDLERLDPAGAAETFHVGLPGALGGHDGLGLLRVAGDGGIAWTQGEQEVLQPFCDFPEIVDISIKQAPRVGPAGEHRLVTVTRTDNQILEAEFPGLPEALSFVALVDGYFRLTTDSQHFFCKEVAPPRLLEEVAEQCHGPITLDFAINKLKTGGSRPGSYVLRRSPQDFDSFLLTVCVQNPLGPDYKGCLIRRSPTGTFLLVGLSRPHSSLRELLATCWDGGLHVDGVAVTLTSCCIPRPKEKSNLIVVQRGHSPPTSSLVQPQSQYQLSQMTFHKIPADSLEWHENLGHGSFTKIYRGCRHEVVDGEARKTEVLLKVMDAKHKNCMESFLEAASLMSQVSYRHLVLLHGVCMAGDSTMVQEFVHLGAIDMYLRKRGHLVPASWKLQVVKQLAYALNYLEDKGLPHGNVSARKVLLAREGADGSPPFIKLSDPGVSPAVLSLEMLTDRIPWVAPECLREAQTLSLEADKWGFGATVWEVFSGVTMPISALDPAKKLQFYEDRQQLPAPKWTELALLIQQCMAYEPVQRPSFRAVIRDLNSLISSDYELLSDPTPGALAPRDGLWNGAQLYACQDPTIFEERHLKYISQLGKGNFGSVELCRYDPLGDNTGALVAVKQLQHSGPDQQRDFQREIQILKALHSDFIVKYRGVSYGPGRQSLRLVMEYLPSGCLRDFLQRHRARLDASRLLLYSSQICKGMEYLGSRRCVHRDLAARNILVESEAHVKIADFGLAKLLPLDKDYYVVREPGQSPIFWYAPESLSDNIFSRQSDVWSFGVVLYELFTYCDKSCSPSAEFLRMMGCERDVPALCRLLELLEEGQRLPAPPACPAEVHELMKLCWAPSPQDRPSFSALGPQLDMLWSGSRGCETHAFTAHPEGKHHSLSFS

[1] = system: Porcine Trabecular Meshwork cells (PTM); experiment: PTM-HTM assay, actin fiber length in PTM cells; type: cell-based; conditions: Sus scrofa; Table 17; porcine trabecular meshwork cells; read-out: PTM
Description: Porcine Trabecular Meshwork cells (PTM) were isolated from freshly obtained enucleated porcine eyes. Immortalized Human Trabecular Meshwork cells (TM-1) were obtained through a kind gift from Donna Peters in the Department of Ophthalmology and Visual Sciences at the University of Wisconsin. Cells were plated onto fibronectin coated glass-bottom 96-well plates and allowed to attach overnight. Media was removed and replaced with test compound in media with 1% fetal bovine serum and incubated for various times. After incubation, cells were formaldehyde fixed, triton solubilized, and stained. PTM cells were stained with Alexa Fluor®488 phalloidin (F-actin) and Hoechst 33342 (nuclei). TM-1 cells were stained with anti-paxillin followed by Alexa Fluor®488 goat-anti-mouse IgG (focal adhesions) and Hoechst 33342 (nuclei). All staining reagents were obtained through Invitrogen. Images were collected on an INCell 2200 imager with a 20× objective. The actin fiber length and total area of focal adhesions were analyzed using custom algorithms developed in the INCell Developer Toolbox, v1.9.3. Data collected were converted to percent of control (untreated cells). Curves were fit to data in GraphPad Prizm using sigmoidal dose-response and constraining top and bottom to 100% and 0%, respectively.

ROCK1 = ROCK1 (Homo sapiens, UniProt Q13464); experiment: ROCK kinase inhibition assay, ROCK1 enzyme; type: biochemical; conditions: ROCK1, Table 17;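 note: kinase reaction with 0.5 µM final ATP, 75 min at room temperature, remaining ATP read by luminescence, percent of DMSO-only control minus background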
[2] = Rabbit IOP after intracameral injection; type: in vivo; conditions: intracameral injection of a formulation, FIG. 1
From the text: Examples of such assays are described in the following reference, incorporated herein by reference: C. Liljebris, G. Selen, B. Resul, J. Sternschantz, and U. Hacksell, “Derivatives of 17-phenyl-18,19,20-trinorprostaglandin F2α Isopropyl Ester: Potential Anti-glaucoma Agents”, Journal of Medicinal Chemistry 1995, 38 (2): 289-304.

Sequence of ROCK2 (O75116 whole entry, species assumed): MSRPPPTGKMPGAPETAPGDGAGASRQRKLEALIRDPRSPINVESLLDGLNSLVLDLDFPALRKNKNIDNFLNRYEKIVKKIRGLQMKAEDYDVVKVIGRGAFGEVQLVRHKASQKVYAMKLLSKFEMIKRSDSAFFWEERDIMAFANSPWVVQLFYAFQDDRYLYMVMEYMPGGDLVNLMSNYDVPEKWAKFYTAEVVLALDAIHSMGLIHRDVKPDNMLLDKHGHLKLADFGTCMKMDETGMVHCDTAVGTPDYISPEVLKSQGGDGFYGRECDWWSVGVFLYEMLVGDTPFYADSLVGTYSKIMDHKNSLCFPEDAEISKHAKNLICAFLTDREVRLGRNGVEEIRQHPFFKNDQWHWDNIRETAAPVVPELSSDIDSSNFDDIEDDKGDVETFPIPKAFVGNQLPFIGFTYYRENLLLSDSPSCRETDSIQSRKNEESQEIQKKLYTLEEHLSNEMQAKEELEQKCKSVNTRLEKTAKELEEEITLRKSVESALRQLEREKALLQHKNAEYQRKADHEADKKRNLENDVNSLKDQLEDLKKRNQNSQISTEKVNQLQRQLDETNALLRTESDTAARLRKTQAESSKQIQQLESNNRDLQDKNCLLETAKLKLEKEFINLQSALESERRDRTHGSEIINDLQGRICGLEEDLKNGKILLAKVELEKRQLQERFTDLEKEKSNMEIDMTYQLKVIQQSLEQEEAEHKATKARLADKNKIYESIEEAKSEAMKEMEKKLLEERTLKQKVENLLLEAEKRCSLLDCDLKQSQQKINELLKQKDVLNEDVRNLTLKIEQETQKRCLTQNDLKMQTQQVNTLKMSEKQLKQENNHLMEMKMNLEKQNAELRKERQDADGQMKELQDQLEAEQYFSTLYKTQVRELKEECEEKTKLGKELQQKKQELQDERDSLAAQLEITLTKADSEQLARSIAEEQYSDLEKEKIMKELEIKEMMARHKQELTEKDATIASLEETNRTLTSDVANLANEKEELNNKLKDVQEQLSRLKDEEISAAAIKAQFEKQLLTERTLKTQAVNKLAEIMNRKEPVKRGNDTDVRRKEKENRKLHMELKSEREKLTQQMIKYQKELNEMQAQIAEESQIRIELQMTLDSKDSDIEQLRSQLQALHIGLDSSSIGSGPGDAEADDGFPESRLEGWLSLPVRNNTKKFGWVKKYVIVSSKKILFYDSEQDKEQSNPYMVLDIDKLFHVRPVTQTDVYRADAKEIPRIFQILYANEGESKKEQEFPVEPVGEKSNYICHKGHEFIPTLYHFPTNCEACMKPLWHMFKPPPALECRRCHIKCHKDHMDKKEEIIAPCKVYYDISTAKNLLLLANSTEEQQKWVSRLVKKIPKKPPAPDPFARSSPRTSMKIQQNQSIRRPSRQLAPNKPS
Sequence of ROCK1 (Q13464 whole entry, species assumed): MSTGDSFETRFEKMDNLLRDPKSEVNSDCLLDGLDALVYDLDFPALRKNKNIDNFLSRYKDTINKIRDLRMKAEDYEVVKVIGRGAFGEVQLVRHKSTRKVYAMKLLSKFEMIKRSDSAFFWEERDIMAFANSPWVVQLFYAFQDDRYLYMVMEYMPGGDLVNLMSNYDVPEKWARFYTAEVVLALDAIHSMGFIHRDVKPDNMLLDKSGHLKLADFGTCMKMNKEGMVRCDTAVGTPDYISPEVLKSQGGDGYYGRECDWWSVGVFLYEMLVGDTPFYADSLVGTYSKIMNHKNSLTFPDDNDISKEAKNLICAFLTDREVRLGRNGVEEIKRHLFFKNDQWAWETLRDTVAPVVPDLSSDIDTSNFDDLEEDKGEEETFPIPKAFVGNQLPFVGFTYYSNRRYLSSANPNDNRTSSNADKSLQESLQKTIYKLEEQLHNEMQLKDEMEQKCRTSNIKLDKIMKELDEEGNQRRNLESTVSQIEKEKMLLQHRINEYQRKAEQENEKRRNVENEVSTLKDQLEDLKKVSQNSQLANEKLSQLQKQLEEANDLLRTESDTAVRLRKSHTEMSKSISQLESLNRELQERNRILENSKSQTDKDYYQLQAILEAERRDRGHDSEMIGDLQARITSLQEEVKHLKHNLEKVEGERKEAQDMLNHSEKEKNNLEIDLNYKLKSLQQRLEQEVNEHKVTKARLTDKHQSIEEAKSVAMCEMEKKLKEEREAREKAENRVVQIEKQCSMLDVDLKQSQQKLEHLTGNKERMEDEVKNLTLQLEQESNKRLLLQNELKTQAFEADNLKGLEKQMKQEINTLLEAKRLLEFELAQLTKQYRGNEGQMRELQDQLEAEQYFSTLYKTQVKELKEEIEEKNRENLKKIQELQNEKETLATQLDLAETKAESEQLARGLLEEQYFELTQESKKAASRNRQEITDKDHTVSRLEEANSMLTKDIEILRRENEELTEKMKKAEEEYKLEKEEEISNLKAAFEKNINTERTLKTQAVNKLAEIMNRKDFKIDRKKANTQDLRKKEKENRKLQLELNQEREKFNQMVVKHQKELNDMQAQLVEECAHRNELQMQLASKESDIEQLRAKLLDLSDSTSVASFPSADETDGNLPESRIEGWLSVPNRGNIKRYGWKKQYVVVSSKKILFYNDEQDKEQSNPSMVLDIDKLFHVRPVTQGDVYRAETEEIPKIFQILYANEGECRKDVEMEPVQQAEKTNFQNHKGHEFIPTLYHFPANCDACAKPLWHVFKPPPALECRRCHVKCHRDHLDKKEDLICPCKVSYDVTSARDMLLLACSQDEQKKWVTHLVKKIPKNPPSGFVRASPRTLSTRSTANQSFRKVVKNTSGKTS

| Molecule | Ki (ROCK2) | Ki (IKKb) | Ki (JAK3) | IC50 [1] | Ki (ROCK1) | changes (reductions) in rabbit IOP [2] |
| --- | --- | --- | --- | --- | --- | --- |
| O=C(Nc1ccc2cnccc2c1F)[C@@H]1CC1c1ccc(S(=O)(=O)Nc2ccccn2)cc1 (mixture of isomers) [N-(5-fluoroisoquinolin-6-yl)-2-(4-(N-(pyridin-2-yl)sulfamoyl)phenyl)cyclopropane-1-carboxamide] | 4.9 nM | 144 nM | 130 nM | 290 nM | 10.3 nM |  |
| (1R,2R)—N-(fluoroisoquinolin-6-yl)-2-(4-(pyridinylmethyl)phenyl)cyclopropane-1-carboxamide |  |  |  |  |  | reductions |
